Patent publication US12569468B2, “Use of palovarotene in treatment against HBV virus” (YANG SHENG TANG COMPANY, LTD., priority 2020, dated 2026)

System: HBV
Assay: Therapeutic effect on human primary hepatocytes infected by HBV (drug from day 8 after infection)
Type: cell-based, hepatitis B virus
Conditions: drug added 8 days after infection
Protocol: The drug to be tested and the positive control drug were diluted with medium H to the required concentrations, and to the blank group the same volume of medium H without drug was added.
Primary hepatocytes were isolated from humanized mice transplanted with primary human hepatocytes through perfusion technique, directly cultured in 24-well plates after counting (5×10^5 primary hepatocytes per well), and medium H was added to maintain hepatocyte morphology. Infection with HBV was performed 24 hours after culturing, the amount of HBV for infection in each well was 2000 MOI. Before infection, HBV was first dissolved in medium I to obtain HBV solution, and the infection volume was 250 μL/well. During infection, the cell supernatant was first removed by suction, the HBV solution was added to the cells, the cells were incubated for 24 hours, then the supernatant was collected as the sample of Day 0, and then the supernatant was collected every two days for detection, fresh medium H was used for replacement. On the 8th day, fresh drug-containing medium H was used for replacement to start the drug treatment, until the 14th day, all the supernatant and the cells were collected for relevant detection. The detection items included: HBsAg, HBeAg, HBV DNA, HBV cccDNA, and for the detection method, please refer to Example 1.

[1] = to day 14, p<0.05, more obvious at 5 μM and 25 μM

CC1(C)CCC(C)(C)c2cc(Cn3cccn3)c(/C=C/c3ccc(C(=O)O)cc3)cc21 [Palovarotene]
HBV cccDNA (to day 14, 25 μM, p<0.01): significant inhibitory effects
HBV DNA (to day 14, 25 μM, p<0.05): significant inhibitory effects
level of HBeAg in the cell supernatant [1]: significantly inhibited
level of HBsAg in the cell supernatant [1]: significantly inhibited
